One compound from article PMC5522071, “Preclinical development of G1T38: A novel, potent and selective inhibitor of cyclin dependent kinases 4/6 for use as an oral antineoplastic in patients with CDK4/6 sensitive tumors” (Oncotarget, 2017) can be followed below.

In series [1] the test system is RNA polymerase II (RPB1) CTD (SER2) phosphorylation in HS68 cells. The experiment in a line: Western blot for Rpb1 CTD. In kind it is cell-based. As to conditions: immunoblot, 3-1000 nM, 24 hours.
Series [2] in a line: in vivo. As to conditions: C57BL/6, mouse, po.
In series [3] the test system is MCF7 murine tumors. The experiment in a line: Plasma exposure versus % TGI, nonlinear regression. In kind it is in vivo, mice. As to conditions: AUC 0-last single dose vs TGI, MCF7, 28 days.
In series [4] the test system is MMTV-Neu GEMM (Her2/Neu) tumors. Put plainly: Her2Neu breast cancer GEMM. Type of series: in vivo, mice. To be noted: 100 mg/kg in diet, after 21 days of treatment. The protocol:
After 21 days, tumor progression was calculated using the formula: (21 day volume – initial volume)/ initial volume x 100. […] Yellow bar represents duration of treatment. Statistics were completed using linear regression analysis of time during treatment (28 days). Error bars represent SEM. **p≤0.01.
Female MMTV-NEU mice (Jackson Labs Strain 002376) were used to test the efficacy of G1T38 (100 mpk, medicated diet). Drug was incorporated into diet by Research Diets (New Brunswick, NJ) using the following parameters; 25 gm mouse eating 3.2 gm of food/day. Mice were monitored for tumor development by palpating them weekly as per University of North Carolina at Chapel Hill Lineberger Mouse Phase 1 Unit (MP1U) protocol. At time of treatment, body composition was assessed and weight measurements (in grams) were recorded and used as a measure of gross toxicity. Mice were monitored until euthanized at predetermined humane endpoints per approved University of North Carolina at Chapel Hill IACUC protocols.

Series [5] deals with ZR-75-1. Put plainly: Cell proliferation, CellTiter-Glo. Type of series: cell-based. As to conditions: Homo sapiens, 144 h; ZR-75-1, ER+ breast cancer, RB +; four or six days; read-out: G1T38 EC50, growth inhibition. The method, then: (§1) To assess the capacity of G1T38 to inhibit proliferation of tumor cell lines, a broad panel of CDK4/6 dependent and independent lines was evaluated using CellTiter Glo (Table 2).
(§2) SupT1, Daudi, MCF7, ZR-75-1, A2058, WM2664, and H69 cells were seeded at 1000 cells per well; MV-4-11 and BV173 cells were plated at 4000 cells per well; Tom-1 cells were plated at 8,000 cells per well; NALM-1 cells were plated at 20,000 cells per well in Costar 3903 96 well plates. After 24 hours, plates were dosed with G1T38 at a nine-point dose concentration from 10 μM to 1 nM. Cell viability was determined after four or six days using the CellTiter-Glo® assay (Promega; Madison, WI) following manufacturer's recommendations. Plates were processed on BioTek (Winooski, VT) Synergy2 multi-mode plate reader and data analyzed using GraphPad (San Diego, CA) Prism 5 statistical software.
In general terms: In ATP-based viability assays light output follows the ATP content of the culture.

The test system of series [6] is A2058. Put plainly: Cell proliferation, CellTiter-Glo. In kind it is cell-based. To be noted: Homo sapiens, 144 h; A2058, Melanoma, RB -; four or six days; read-out: G1T38 EC50, growth inhibition. The method, then:
as §1, §2

The test system of series [7] is WM2664. Put plainly: Cell proliferation, CellTiter-Glo. In kind it is cell-based. As to conditions: Homo sapiens, WM 266-4, 144 h; WM2664, Melanoma, RB +; four or six days; read-out: G1T38 EC50, growth inhibition. The protocol: as §1, §2
Series [8] deals with MCF7. Put plainly: Cell proliferation, CellTiter-Glo. In kind it is cell-based. As to conditions: Homo sapiens, 144 h; MCF7, ER+ breast cancer, RB +; four or six days; read-out: G1T38 EC50, growth inhibition. The protocol:
as §1, §2

For series [9], the system named is H69. Put plainly: Cell proliferation, CellTiter-Glo. As to conditions: Homo sapiens, NCI-H69, 144 h; H69, SCLC, RB -; four or six days; read-out: G1T38 EC50, growth inhibition. Type of series: cell-based. The protocol: as §1, §2
For series [10], the system named is SupT1. Put plainly: Cell proliferation, CellTiter-Glo. To be noted: Homo sapiens, SUP-T1, 144 h; SupT1, Lymphoma, RB +; four or six days; read-out: G1T38 EC50, growth inhibition. Type of series: cell-based. The protocol:
as §1, §2

Series [11] concerns Tom1. Put plainly: Cell proliferation, CellTiter-Glo. In kind it is cell-based. To be noted: 144 h; Tom1, Ph1+ leukemia, RB +; four or six days; read-out: G1T38 EC50, growth inhibition. The method, then:
as §1, §2

Series [12] has as its system BV173. Put plainly: Cell proliferation, CellTiter-Glo. In kind it is cell-based. As to conditions: Homo sapiens, BV-173, 144 h; BV173, Ph1+ leukemia, RB +; four or six days; read-out: G1T38 EC50, growth inhibition. The protocol:
as §1, §2

Series [13] concerns MV4-11. Put plainly: Cell proliferation, CellTiter-Glo. Type of series: cell-based. As to conditions: Homo sapiens, 144 h; MV4-11, B cell leukemia, RB +; four or six days; read-out: G1T38 EC50, growth inhibition. The protocol: as §1, §2
Series [14] concerns Daudi. Put plainly: Cell proliferation, CellTiter-Glo. Type of series: cell-based. To be noted: Homo sapiens, 144 h, Lymphoma, RB +, four or six days, read-out: G1T38 EC50, growth inhibition. The method, then:
as §1, §2

For series [15], the system named is NALM1. The experiment in a line: Cell proliferation, CellTiter-Glo. In kind it is cell-based. To be noted: 144 h; NALM1, Leukemia, RB -; four or six days; read-out: G1T38 EC50, growth inhibition. The method, then:
as §1, §2

The target in series [16] is JAK2 (Homo sapiens, UniProt O60674). The experiment in a line: JAK2 inhibition. In kind it is biochemical.
Series [17] deals with pRB in MCF7 xenograft tumors. The experiment in a line: Inhibition of Rb phosphorylation in MCF-7 tumors. Type of series: in vivo, mice. To be noted: single oral dose 100 mg/kg.
Series [18] addresses T1, CDK1/Cyclin B1 (Homo sapiens, UniProt P06493).
T1 construct: purchased Nanosyn, Inc. (contract assay)
In kind it is biochemical. To be noted: 12-point dose response, singlicate, at Km for ATP.

Series [19] has as its target CDK2/Cyclin E (Homo sapiens, UniProt P24941). As to conditions: read-out: IC50 CDK2/Cyclin E, Mean; 12-point dose response, singlicate, at Km for ATP.
Protocol: The assays were completed using microfluidic kinase detection technology (Caliper Assay Platform). The compounds were tested in 12-point dose response format in singlicate at the Km for ATP. Phosphoacceptor substrate peptide concentration used was 1 μM and Staurosporine was used as the reference compound for all assays.

As a reminder, the EC50 is the concentration needed to bring the measured effect to its halfway point.

T1 sequence (P06493 whole entry): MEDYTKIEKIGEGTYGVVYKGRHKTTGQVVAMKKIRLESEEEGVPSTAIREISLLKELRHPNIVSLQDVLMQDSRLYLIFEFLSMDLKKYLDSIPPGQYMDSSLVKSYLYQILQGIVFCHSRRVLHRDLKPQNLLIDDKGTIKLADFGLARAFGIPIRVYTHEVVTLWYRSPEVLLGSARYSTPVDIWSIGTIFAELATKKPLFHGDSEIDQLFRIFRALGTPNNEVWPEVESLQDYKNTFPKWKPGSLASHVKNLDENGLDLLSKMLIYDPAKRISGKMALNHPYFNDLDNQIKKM
T1 sequence (P14635 whole entry partner): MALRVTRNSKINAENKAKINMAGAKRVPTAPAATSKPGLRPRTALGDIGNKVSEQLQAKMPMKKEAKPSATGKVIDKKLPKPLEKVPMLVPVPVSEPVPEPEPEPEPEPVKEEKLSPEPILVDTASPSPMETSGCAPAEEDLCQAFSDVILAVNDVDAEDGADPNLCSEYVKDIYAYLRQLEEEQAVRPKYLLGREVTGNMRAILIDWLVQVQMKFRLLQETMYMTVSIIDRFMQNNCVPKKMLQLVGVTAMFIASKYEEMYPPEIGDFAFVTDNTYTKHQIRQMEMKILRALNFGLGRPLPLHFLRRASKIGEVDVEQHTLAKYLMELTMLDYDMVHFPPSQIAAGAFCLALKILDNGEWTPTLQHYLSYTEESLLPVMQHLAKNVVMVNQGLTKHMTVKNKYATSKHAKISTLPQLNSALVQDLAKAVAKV
Chain of JAK2 (O60674 whole entry, species assumed): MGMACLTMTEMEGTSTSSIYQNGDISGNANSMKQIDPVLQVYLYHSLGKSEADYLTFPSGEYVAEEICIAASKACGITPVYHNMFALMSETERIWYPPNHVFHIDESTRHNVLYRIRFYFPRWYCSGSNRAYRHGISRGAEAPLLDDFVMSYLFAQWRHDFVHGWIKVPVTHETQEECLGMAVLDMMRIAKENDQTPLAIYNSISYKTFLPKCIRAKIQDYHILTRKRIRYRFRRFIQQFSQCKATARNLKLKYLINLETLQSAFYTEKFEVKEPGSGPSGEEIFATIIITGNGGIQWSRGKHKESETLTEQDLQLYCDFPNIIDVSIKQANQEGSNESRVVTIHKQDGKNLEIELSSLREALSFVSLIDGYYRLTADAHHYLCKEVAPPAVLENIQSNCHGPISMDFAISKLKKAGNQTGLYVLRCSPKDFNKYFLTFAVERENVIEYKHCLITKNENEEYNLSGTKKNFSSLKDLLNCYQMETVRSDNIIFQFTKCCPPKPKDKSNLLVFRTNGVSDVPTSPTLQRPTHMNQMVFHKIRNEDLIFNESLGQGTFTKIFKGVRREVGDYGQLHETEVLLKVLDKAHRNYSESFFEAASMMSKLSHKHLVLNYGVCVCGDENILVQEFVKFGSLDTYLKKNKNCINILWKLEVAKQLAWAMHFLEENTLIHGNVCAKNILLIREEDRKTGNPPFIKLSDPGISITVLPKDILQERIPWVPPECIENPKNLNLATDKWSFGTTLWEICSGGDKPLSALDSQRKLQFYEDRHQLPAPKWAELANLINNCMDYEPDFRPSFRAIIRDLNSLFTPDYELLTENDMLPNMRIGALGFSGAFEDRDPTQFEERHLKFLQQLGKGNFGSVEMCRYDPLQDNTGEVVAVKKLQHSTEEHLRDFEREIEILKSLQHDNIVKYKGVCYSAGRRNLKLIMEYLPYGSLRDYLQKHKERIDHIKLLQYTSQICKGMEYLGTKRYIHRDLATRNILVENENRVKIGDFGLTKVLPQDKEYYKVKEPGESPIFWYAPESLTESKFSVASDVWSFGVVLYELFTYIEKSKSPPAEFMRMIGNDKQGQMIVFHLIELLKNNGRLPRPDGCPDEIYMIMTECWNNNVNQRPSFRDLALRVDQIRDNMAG

`CC(C)N1CCN(c2ccc(Nc3ncc4cc5n(c4n3)C3(CCCCC3)CNC5=O)nc2)CC1.Cl.Cl` [G1T38, 2′-((5-(4-isopropylpiperazin-1-yl)pyridin-2-yl)amino)-7′, 8′dihydro-6′Hspiro[cyclohexane1,9′ pyrazino[1′,2′:1,5]pyrrolo[2,3-d]pyrimidin]-6′-one di-hydrochloride]: the “RPB1 CTD (SER2) phosphorylation (CDK9/cyclin T function)” value in [1] is recorded as “no loss”. In [2], this compound showed a concentration at 24 h of about 22 nM. Moreover, the “EC50 (plasma exposure vs % TGI) lower than palbociclib” value in [3] is 3.8 fold. Further, in [4], the tumor regression came to 38%. The concentration giving a half-maximal response (EC50) is 61 nM in [5]; 2690 nM in series [6]; 125 nM in [7]; 52 nM in series [8]; 2920 nM in [9]; 57 nM in series [10]. The EC50 is 232 nM in series [11]; 296 nM in [12]; 23 nM in series [13]; 784 nM in series [14]; over 10000 nM in series [15]. The IC50 is over 500 nM in series [16], 2400 nM in [18] and 3600 nM in [19]. Besides, the “decrease of phosphorylated RB relative to the control” value in series [17] (1 hour post-treatment) is 30%; in [17] (24 hours post-treatment), 98%. Moreover, in series [17] (48 hours post-treatment), the “phosphorylation of RB, of control levels” value is given as “approximately 31%”.
